melting point [°C] | Compound
88 to 98 | O=C(O)c1ccc(OCCNC(=O)C2Cc3ccccc3N2S(=O)(=O)c2ccc(-c3ccc(F)cc3Cl)cc2)nc1 (centres undefined)
54 to 56 | CCC(C)(C)c1ccc(Oc2ccc(C(=O)c3ccc(Oc4ccc(C(C)(C)CC)cc4C(C)(C)CC)cc3)cc2)c(C(C)(C)CC)c1
75 to 78 | CON1CCC(C#N)(OC(=O)Cc2c(C)cc(C)cc2C)CC1
135 to 137 | Cc1ccc(NC(=O)N(C)C(c2cnc(C(F)F)nc2Cl)C(C)C)cc1 (centres undefined)
121 | CC1(N2C(=O)c3cccc([N+](=O)[O-])c3C2=O)C=CC(OC(F)(F)C(F)C(F)(F)F)=CC1 (centres undefined)
106 to 107 | COc1ccc(Nc2nc3ccccc3c3[nH]c(C4CCCC4)nc23)cc1
80 to 83 | CC(C)(C)c1cc(C(=O)OCc2ccccc2)cc(C(C)(C)C)c1O
89 to 90 | CC(C)N1CCN(C(=O)c2cc(N)cc(C(F)(F)F)c2)CC1
222 to 224 | Cn1c(=O)c2c(c3ccccc31)c1cc(Cl)ccc1n2CCN
189 to 190 | O=C(O)c1nc(C2CC2)[nH]c(=O)c1Cl
97 to 100 | O=C(O)CCCCCCCCN1NC(c2ccccc2)=C(c2ccccc2)NC1=O
202 to 204 | CC(C)(C)NC(=O)NCc1ccc2c(c1)C(=O)N(C1CCC(=O)NC1=O)C2=O (centres undefined)
163 to 166 | O=Cc1coc2ccc(OCc3ccccc3)cc2c1=O
152 to 153 | CNC(=O)[C@H]1O[C@@H]1c1ccc(C)cc1
162 to 164 | O=C1NCCc2c(OCC(O)CN3CCCCC3)cccc21 (centres undefined)
66 to 67 | COCCNC(N)=Nc1nc(-c2cccc(CNC(=O)CN)c2)cs1
108 to 113 | CC(=O)Oc1ccc2c(c1)C[C@H]1CCCN(C(C)=O)[C@H]1C2 (relative stereo)
167 to 170 | CC(NC(=O)CSC(=O)c1ccccc1)C(=O)NCC(=O)NCC(=O)O (centres undefined)

melting point [°C] | Compound
183 to 184 | CCN1C(=Cc2ccc([N+](=O)[O-])cc2C#N)C=Cc2ccccc21
189 to 190 | Cc1nn(C)c2c1Nc1ccccc1NC2=O
187 to 188 | O=C(O)Cc1ccc([N+](=O)[O-])cc1CC(=O)O
112 to 114 | C=C(C)C(=O)Oc1ccc(S(=O)(=O)N(C(=O)OC(C)(C)C)c2ccccc2)cc1
164 to 165 | COc1ccc(Cc2cc(Oc3c(C)cc(C=C4N=C(C)OC4=O)cc3C)ccc2OC)cn1
260 to 261 | Cc1cc(C)c2c(=O)[nH]c(-c3cc(C)c(OCCO)c(C)c3)nc2c1
43 to 45 | CCOC(=O)CSc1ccc([N+](=O)[O-])cc1
77 to 79 | N#Cc1c(-c2ccc(OCc3ccccc3)cc2)cn(-c2cccc(OCCCl)c2)c1N
209 to 210 | CC1(c2ccc(S(=O)(=O)Cl)cc2)Cc2cc(OCC(=O)O)c(Cl)c(Cl)c2C1=O (centres undefined)
155 to 158 | CC(CC(=O)Nc1c(Cl)ccc2nc(N3CCC(NCCCO)C3)ccc12)c1ccccc1 (centres undefined)
148 to 150 | Cc1oc2c(-n3c(=O)cc(C(F)(F)F)n(C)c3=O)c(F)cc(Cl)c2c1C=O
91 | O=C(CCCCCN1CCN(c2cccc(C(F)(F)F)c2)CC1)N1Cc2ccc(C(=O)N3CCCCC3)cc2C1
112 | CC(C)(C)OC(=O)NCC(=O)N1[C@@H](C(=O)OC(C)(C)C)CC[C@H]1c1ccccc1 (racemic)
32 to 34 | COC(=O)CC(NC1CC1)=C(C(=O)OC)C(=O)C(F)(F)C(F)(F)F
130 to 135 | CCOC(=O)Cn1ncc(-c2ccccc2)c1-c1ccc(O)cc1
69 to 71 | CSC(C[N+](=O)[O-])NCCSCc1cc(C)c(CN(C)C)s1 (centres undefined)
156 to 158 | C=CC(=O)NC(=O)NCCCl
64 to 70 | CCCCn1nc(C)c(C=O)c1Cc1ccc(-c2ccccc2-c2nnn[nH]2)cc1

Compound | melting point [°C]
NC(=O)C(=O)NCCC(F)=C(F)F | 190 to 220
ClCc1cn2ccccc2n1 | 93 to 94
c1ccc(Pc2ccccc2)cc1 | 128 to 131

Source: a melting point compilation (Tetko et al.; mined from patent text by program, amines drawn as free bases though some values may be those of a salt)
